Laboratory results taken from ChEMBL document CHEMBL1201862, “PubChem BioAssay data set” (2004).
The source made the active and inactive calls.

Assays:
H9c2 = assay: cells; type: functional, cell-based; details: Rattus norvegicus, H9c2, Myocardium;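 note: confirmatory concentration-response retest of ultra-high-throughput screening hits for modulation of myocardial damage; cell death induced by hydrogen peroxide oxidative stress; compound pretreatment for 60 min then peroxide exposure for 2 h; potency is for protecting the cells against peroxide damage rather than for killing them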
[1] = molecular target: T1, Corticotropin-releasing factor receptor 2/Corticotropin-releasing factor-binding protein (Homo sapiens, UniProt P24387+Q13324); assay: Dose Response confirmation of uHTS hits for small molecule antagonists of the CRF-binding protein and CRF-R2 receptor complex.; type: functional; details: read-out: IC50_Mean
T1 sequence (Q13324 whole entry): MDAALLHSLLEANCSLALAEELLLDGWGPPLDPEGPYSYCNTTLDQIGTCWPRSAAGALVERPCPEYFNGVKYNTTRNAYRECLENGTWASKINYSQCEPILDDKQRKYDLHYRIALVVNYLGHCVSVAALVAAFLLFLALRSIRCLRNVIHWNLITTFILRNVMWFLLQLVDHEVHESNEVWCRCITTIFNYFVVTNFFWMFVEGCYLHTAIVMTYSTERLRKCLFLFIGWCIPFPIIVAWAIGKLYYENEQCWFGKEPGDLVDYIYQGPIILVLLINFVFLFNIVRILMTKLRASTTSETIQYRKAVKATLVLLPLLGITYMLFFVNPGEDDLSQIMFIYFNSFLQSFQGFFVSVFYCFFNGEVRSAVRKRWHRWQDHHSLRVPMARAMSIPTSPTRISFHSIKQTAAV
T1 sequence (P24387 whole entry): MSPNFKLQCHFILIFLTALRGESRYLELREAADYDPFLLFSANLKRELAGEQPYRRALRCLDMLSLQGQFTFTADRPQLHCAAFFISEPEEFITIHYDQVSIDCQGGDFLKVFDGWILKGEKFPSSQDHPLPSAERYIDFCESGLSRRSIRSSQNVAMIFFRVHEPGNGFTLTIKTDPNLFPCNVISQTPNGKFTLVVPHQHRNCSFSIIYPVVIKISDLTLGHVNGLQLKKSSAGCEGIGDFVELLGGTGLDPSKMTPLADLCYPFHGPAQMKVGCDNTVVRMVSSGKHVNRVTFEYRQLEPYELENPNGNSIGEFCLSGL

[2] = molecular target: T1, Corticotropin-releasing factor receptor 2/Corticotropin-releasing factor-binding protein; assay: activators of CRF receptor 2 with binding protein – uHTS hits, confirmation (AID 602473); type: functional; details: read-out: EC50_Mean
[3] = molecular target: T2, Short transient receptor potential channel 4 (Mus musculus, UniProt Q9QUQ5); assay: mouse TRPC4 channel inhibitors, dose response, cell-based, HEK293 TRPC4/mu-opioid, Fluo-4 calcium (AID 434942); type: functional;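 note: potency of inhibitors blocking the TRPC4 calcium response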
T2 sequence (Q9QUQ5 whole entry): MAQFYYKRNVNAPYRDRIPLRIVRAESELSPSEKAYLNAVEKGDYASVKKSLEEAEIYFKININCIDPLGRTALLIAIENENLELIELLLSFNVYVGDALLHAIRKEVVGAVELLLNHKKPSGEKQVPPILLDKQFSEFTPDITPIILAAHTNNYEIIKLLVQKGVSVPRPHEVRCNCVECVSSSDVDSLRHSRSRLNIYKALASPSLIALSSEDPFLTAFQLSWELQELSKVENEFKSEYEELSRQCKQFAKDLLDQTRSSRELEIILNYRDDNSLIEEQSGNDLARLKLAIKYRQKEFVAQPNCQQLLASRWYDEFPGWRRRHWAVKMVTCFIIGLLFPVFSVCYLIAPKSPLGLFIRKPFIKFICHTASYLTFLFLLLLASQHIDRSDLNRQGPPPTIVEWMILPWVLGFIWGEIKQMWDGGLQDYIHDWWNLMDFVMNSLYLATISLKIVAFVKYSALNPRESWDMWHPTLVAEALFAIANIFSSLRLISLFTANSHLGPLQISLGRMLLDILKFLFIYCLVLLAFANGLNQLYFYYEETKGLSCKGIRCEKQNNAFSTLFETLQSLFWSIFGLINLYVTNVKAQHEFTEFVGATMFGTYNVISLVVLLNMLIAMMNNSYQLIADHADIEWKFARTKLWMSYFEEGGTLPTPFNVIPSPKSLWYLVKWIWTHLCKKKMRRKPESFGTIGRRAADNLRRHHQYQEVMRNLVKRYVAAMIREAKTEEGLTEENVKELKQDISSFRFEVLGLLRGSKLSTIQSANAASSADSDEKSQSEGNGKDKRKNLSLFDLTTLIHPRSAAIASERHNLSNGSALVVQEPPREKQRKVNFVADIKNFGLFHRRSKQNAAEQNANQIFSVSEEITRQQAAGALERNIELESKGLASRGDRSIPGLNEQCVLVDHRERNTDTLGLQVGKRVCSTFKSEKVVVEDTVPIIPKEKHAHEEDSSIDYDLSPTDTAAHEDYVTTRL

[4] = molecular target: Luciferin 4-monooxygenase (Photinus pyralis, UniProt P08659); assay: firefly luciferase enzyme inhibitors, dose response, biochemical, luminescence (AID 1891)
Luciferin 4-monooxygenase, sequence (P08659 whole entry): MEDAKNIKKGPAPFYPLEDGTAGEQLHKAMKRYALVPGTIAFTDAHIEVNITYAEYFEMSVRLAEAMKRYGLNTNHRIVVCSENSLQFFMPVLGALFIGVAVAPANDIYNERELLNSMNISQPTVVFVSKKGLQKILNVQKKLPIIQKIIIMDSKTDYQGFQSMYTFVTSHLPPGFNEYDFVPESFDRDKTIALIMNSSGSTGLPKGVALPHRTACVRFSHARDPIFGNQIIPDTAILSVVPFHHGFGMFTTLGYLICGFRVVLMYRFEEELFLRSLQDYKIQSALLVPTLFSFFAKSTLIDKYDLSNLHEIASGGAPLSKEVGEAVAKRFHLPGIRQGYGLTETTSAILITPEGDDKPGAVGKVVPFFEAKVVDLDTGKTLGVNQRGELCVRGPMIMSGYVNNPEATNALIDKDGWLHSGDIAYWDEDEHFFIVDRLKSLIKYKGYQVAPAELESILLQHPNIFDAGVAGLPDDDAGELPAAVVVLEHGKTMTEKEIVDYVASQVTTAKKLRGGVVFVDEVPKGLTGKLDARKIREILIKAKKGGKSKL

[5] = Luminescence Cell-Based Dose Confirmation HTS to Identify Inhibitors of Platelet Dense Granule Release. [Related pubchem assays: 1663 (Primary HTS), 1678 (Summary of Project)]; type: functional
Large T antigen = Large T antigen (Simian virus 40, UniProt P03070); type: functional, Betapolyomavirus macacae;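 note: Confirmatory-stage PubChem screen for compounds that inhibit SV40 T antigen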
Large T antigen, sequence (P03070 whole entry): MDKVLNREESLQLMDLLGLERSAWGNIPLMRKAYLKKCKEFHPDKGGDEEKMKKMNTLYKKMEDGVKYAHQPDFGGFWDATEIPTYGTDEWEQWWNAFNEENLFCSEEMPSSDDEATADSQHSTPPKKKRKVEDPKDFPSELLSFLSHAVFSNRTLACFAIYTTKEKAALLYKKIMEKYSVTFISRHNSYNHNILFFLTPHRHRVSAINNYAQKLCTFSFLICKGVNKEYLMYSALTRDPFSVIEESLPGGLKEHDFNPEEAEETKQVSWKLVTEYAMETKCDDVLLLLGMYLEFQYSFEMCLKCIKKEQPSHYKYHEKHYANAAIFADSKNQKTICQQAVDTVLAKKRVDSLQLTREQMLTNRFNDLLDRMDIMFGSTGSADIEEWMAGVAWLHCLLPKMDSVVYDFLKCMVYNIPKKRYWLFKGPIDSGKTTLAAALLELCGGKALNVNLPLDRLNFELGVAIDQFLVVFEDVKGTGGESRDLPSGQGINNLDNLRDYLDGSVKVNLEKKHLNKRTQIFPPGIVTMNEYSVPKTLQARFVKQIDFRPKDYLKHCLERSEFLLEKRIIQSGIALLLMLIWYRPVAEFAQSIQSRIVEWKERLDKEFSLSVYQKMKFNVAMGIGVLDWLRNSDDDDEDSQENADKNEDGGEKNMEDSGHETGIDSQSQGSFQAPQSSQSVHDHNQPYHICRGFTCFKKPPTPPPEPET

[6] = microbe, parasite or virus in culture; type: functional; details: Mycobacterium tuberculosis
[7] = molecular target: T3, Zinc finger protein mex-5 (Caenorhabditis elegans, UniProt Q9XUB2); assay: MEX-5/TCR-2 RNA interaction inhibitors, dose response, biochemical, C. elegans, fluorescence polarization (AID 1960)
T3 sequence (Q9XUB2 whole entry): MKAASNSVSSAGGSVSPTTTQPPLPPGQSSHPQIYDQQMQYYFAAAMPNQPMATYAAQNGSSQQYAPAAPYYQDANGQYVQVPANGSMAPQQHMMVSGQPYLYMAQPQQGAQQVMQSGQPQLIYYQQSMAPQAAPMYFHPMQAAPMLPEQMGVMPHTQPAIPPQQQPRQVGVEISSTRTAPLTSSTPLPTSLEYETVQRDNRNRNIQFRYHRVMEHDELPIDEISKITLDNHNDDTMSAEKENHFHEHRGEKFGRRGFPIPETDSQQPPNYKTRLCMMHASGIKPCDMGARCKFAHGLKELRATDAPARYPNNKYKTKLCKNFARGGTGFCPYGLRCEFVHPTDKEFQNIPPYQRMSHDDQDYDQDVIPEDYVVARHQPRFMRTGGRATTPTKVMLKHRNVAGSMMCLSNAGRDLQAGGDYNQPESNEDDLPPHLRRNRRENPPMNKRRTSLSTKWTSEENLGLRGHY

[8] = molecular target: T4, RNA-binding protein pos-1 (Caenorhabditis elegans, UniProt G5EF15); assay: inhibitors of POS-1/mex-3 RNA binding, dose response, biochemical, fluorescence polarization (AID 1964);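 note: purified POS-1 fused to maltose binding protein made in E. coli; potency of compounds blocking POS-1 binding to fluorescent RNA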
T4 sequence (G5EF15 whole entry): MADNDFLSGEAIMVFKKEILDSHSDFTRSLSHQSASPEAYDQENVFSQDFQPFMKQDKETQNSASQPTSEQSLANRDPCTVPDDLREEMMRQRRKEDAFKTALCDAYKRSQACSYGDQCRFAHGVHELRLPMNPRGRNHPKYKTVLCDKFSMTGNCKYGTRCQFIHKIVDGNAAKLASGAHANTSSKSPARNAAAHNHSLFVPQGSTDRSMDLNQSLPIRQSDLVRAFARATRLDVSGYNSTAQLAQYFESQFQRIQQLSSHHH

INS1 = assay: beta cell apoptosis inhibitors, cytokine rescue, dose response, luminescence, retest (AID 449756); type: functional, cell-based; details: Rattus norvegicus;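 note: cell death triggered by IL-1 beta plus TNF-alpha plus IFN-gamma mixture; protective hits raise ATP signal compared with cytokine alone wells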
Vero = assay: cells; type: functional; details: Chlorocebus sabaeus
[9] = HepG2 cell cytotoxicity, dose response, cytotoxicity control for Shn3 inhibitor project, CellTiter-Glo, cherry-picked (AID 624134); type: functional, cell-based
[10] = Shn3 3'UTR reporter inhibitors, dose response, cell-based, Clone20 osteoblasts, firefly luciferase, cherry-picked (AID 624132); type: functional;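 note: firefly luciferase luminescence from reporter carrying the Shn3 3'UTR in osteoblasts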
[11] = control 3'UTR Renilla luciferase suppression, dose response, counter-screen for Shn3 inhibitor project, cell-based, Clone20-Shn3RL, cherry-picked (AID 624133); type: functional
Paired box protein Pax-8 = Paired box protein Pax-8 (Homo sapiens, UniProt Q06710); assay: inhibitors of PAX8-driven TPO luciferase reporter, dose response, RMG-I cells, cherry-pick (AID 687027); type: functional, cell-based;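 note: luciferase reporter driven by Pax8 target thyroperoxidase promoter measured by SteadyGlo luminescence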
Paired box protein Pax-8, sequence (Q06710 whole entry, the tested form may be a part): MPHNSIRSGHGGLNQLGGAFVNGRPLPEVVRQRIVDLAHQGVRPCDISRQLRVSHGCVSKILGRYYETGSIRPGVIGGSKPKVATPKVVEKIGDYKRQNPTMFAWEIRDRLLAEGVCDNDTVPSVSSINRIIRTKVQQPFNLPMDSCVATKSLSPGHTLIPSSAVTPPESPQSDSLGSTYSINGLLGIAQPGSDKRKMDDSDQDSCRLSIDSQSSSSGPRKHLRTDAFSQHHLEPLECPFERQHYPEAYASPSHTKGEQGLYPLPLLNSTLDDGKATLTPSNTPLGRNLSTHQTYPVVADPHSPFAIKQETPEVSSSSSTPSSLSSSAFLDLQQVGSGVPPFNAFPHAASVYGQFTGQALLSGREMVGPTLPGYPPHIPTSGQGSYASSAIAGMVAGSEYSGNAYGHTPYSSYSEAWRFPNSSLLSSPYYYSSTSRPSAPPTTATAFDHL

[12] = inhibitors of HIV Env-driven cell fusion, dose response, cherry-pick (AID 652057); type: functional, cell-based

CC(C)(C)NC(=O)c1cccc(NC(=O)c2ccc(NC(=O)c3ccco3)cc2)c1
IC50 (H9c2): > 79 µM (inactive)

COc1ccc(SCC(=O)Nc2ccccc2Cl)cc1
IC50 [1]: > 47.1 µM (inactive) | EC50 [2]: > 53 µM (inactive)

CCCN1CN(Cc2ccco2)c2nc3ccccc3n2C1
EC50 [3]: 1.88 µM (active)

COc1cccc(C(=O)NCc2nnc(SCC(=O)Nc3nccs3)n2-c2ccccc2)c1
EC50 [4]: > 112 µM (not active) | EC50 [5]: > 112 µM (not active)

CN(C)c1ccc(NC(=O)CN2C3CCCC2CC(NC(=O)c2ccccc2)C3)cc1 (stereo not given)
EC50 [3]: 3.35 µM (active) | IC50 (Large T antigen): 7.46 µM (active)

Cc1ccc(-c2nnc(SCC(=O)N3CCN(c4ccccc4)CC3)o2)cc1
IC50 [1]: > 47.1 µM (inactive) | EC50 [2]: > 53 µM (inactive)

CCN(Cc1ccccc1)C(=O)c1cc2c(=O)oc3ccc(C)cc3c2s1
IC50 (H9c2): > 79 µM (inactive)

COc1cc(OC)c(C2N(C)c3ccccc3N2C)cc1OC
EC50 [3]: 1.33 µM (active)

CN(C(=S)NC(=O)c1ccc(Cl)cc1)C1CCCCC1
CC50 [6]: > 40 µM (active)

CC(=O)c1c(S)nc(-c2ccccc2)nc1N1CCN(C)CC1
EC50 [4]: > 112 µM (not active) | EC50 [5]: > 112 µM (not active)

O=C1N=C(N2CCOCC2)S/C1=C\c1ccc(-c2ccccc2Cl)o1
EC50 [7]: > 300 µM (not active) | EC50 [8]: > 300 µM (not active)

COc1ccccc1CN1CCCC(C(=O)N(C)Cc2ccccc2)C1 (stereo not given)
IC50 [1]: > 47.1 µM (inactive) | EC50 [2]: > 53 µM (inactive)

CC(C)CC(C(=O)Nn1cnnc1)N1C(=O)c2ccccc2C1=O (stereo not given)
IC50 [1]: > 47.1 µM (inactive) | EC50 [2]: > 53 µM (inactive)

COc1ccc(-c2nc(NC(=O)Cn3ccc(C(F)(F)F)n3)sc2C)cc1
CC50 [6]: > 40 µM (active)

O=C(COc1ccccc1[N+](=O)[O-])Nc1ccc(N2CCN(C(=O)c3cccs3)CC2)cc1
IC50 (H9c2): > 79 µM (inactive)

O=C(NCCCN1CCOCC1)c1ccccc1
EC50 [4]: > 112 µM (not active) | EC50 [5]: > 112 µM (not active)

CCN1C(=O)C(=Cc2ccc(N3CCOCC3)o2)C(=O)N(CC)C1=S
EC50 [7]: > 300 µM (inconclusive) | EC50 [8]: > 300 µM (not active)

COc1ccc(S(=O)(=O)NNC(=O)C(=O)NNc2ccccn2)cc1
EC50 [8]: > 300 µM (not active)

Cc1cccc(OCC(=O)N2CCN(C(=O)c3cccs3)CC2)c1
EC50 [4]: > 112 µM (not active) | EC50 [5]: > 112 µM (not active)

Cc1ccc(N(CCC#N)C(=O)CSc2nc(O)c3ccccc3n2)cc1
IC50 (H9c2): 35.4 µM (inactive)

COC(=O)c1cc(-n2cccc2)ccc1N1CCOCC1
EC50 [7]: > 300 µM (not active) | EC50 [8]: > 300 µM (not active)

O=C(Nc1ccc(F)cc1)N1CCN2C(=O)c3ccccc3C12c1ccccc1 (stereo not given)
EC50 [3]: 1.68 µM (active)

OC(C#Cc1ccccn1)c1cccs1 (stereo not given)
EC50 [7]: 27.4 µM (inconclusive) | EC50 [8]: 33.4 µM (active)

CC(=O)Nc1ccc(N2C(C(C)=O)=NN(c3ccc(Cl)cc3)C2c2sccc2C)cc1 (stereo not given)
CC50 [6]: > 40 µM (active)

COCCn1c(SCc2cccc([N+](=O)[O-])c2)nc2ccccc2c1=O
EC50 [3]: 1.68 µM (active)

CC(C)=CCN1CCN(Cc2cccc3nonc23)CC1CCO (stereo not given)
EC50 [3]: 2.99 µM (active)

O=C(NN=C(c1ccccc1)c1ccccn1)c1ccccc1
AC50 (INS1): 0.736 µM (active) | CC50 (Vero): 3.11 µM (active)

Cc1ccc(Cn2c(CCNc3nc(-c4ccc(Cl)c([N+](=O)[O-])c4)cs3)nc3cc(C(=O)NCCCO)ccc32)cc1
IC50 (H9c2): 47.7 µM (inactive)

O=C(CCN1CCc2ccccc2C(O)(c2ccccc2)C1)c1ccc2c(c1)OCCO2 (stereo not given)
EC50 [3]: 8.41 µM (active) | AC50 [9]: 63.3 µM (active) | AC50 [10]: 23.1 µM (active) | AC50 [11]: 11.4 µM (active)

Cn1c2ccccc2c(=O)c2ccc(NCc3ccc4c(c3)OCO4)cc21
IC50 (H9c2): 15.2 µM (active)

Cc1ccc(S(=O)(=O)N2[C@@H](c3ccc(Br)cc3)C(C(=O)O)=CC[C@H]2c2cccc(C)c2)cc1
IC50 [1]: > 47.1 µM (inactive) | EC50 [2]: > 53 µM (inactive)

C[C@@H]1CCCCO[C@@H](CN(C)CC2CC2)[C@@H](C)CN([C@H](C)CO)C(=O)c2cc(N(C)C)ccc2O1
IC50 [1]: > 47.1 µM (inactive) | EC50 [2]: > 53 µM (inactive)

Cc1cnc(C=O)c2cccc([N+](=O)[O-])c12
IC50 (H9c2): > 79 µM (inactive)

COc1ccc(/C(O)=C/C=N/c2ccc([N+](=O)[O-])cc2C)c(OC)c1
EC50 [7]: > 300 µM (not active) | EC50 [8]: > 300 µM (not active)

O=C(C1CCC1)N1CCCCN2[C@H](CO)[C@H](c3ccc(-c4cccc(F)c4)cc3)[C@H]2C1
AC50 (Paired box protein Pax-8): 19.1 µM (active)

C[C@H]1CN([C@@H](C)CO)C(=O)c2ccccc2-c2ccccc2CO[C@H]1CN(C)S(=O)(=O)c1ccc(C(F)(F)F)cc1
AC50 (Paired box protein Pax-8): 9.62 µM (active)

CCCNC(=O)C[C@@H]1C[C@H]2c3cc(NC(=O)Cc4ccncc4)ccc3O[C@H]2[C@@H](CO)O1
AC50 [12]: 55.2 µM (active)

N#CC(C#N)=Cc1ccc(N2CCOCC2)cc1
EC50 [7]: > 300 µM (not active) | EC50 [8]: > 300 µM (inconclusive)

O=C1CCc2ccc(OCCCCN3CCN(c4cccc(Cl)c4Cl)CC3)cc2N1 [ARIPIPRAZOLE]
CC50 [6]: 29.4 µM (active)
